# Laboratory results published in patent US9233995B2, “Quinazoline derivatives and quinazoline complex protein kinase inhibitor for inhibiting multiplication of tumor cells and preparation method thereof” (INSTITUTE OF CHEMISTRY, CHINESE ACADEMY OF SCIENCES, priority 2010, dated 2016).
# Legend:
# [1] = Stability (physicochemical properties, Table 1); conditions: for Stability (photostability): light
# [2] = Solubility (physicochemical properties, Table 1); conditions: room temperature, atmospheric pressure
# [3] = target: T1, EGFR (Epidermal Growth Factor Receptor) (Homo sapiens, UniProt P00533); assay: Enzyme-linked immunosorbent assay (ELISA), kinase inhibitory activity (phosphorylation of PTP1B(Tyr66) biotinylated peptide substrate); format: biochemical; conditions: average of two independent parallel experiments
# T1 construct: purchased CST
# Excerpt: Protein kinase assay kit: PTP1B(Tyr66) Biotinylated Peptide from CST company is used as a substrate of kinase EGFR (Epidermal Growth Factor Receptor).
# T1 sequence (P00533 25-1210): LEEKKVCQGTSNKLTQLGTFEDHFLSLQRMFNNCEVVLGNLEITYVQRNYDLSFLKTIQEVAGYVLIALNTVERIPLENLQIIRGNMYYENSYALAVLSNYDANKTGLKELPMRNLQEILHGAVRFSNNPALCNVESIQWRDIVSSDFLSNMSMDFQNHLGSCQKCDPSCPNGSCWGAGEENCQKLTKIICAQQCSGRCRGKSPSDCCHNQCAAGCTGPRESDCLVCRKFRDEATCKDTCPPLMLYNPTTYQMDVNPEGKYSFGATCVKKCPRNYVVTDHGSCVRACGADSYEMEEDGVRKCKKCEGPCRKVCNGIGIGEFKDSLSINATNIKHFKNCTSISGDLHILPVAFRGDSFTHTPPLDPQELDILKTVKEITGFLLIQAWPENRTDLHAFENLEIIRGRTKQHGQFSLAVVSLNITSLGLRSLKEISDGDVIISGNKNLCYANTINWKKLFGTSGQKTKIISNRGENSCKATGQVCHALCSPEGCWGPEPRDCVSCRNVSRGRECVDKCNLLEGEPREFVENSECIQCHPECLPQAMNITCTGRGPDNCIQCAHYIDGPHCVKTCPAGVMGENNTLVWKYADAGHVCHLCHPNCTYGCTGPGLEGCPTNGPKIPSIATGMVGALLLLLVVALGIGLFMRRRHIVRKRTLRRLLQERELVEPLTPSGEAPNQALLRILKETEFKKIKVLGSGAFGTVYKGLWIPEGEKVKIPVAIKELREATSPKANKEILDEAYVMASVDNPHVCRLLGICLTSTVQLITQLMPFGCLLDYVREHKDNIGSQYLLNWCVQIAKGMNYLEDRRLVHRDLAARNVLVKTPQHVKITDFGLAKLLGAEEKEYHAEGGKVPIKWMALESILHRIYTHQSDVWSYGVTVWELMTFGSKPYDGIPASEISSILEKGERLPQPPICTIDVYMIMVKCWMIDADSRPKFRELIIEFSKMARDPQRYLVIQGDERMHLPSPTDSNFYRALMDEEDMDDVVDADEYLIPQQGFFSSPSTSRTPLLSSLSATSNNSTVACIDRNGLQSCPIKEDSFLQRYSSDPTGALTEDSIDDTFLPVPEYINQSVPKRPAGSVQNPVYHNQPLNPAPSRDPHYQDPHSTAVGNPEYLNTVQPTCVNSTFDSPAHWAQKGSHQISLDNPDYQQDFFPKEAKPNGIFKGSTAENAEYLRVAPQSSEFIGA
Structure (SMILES),Stability (in air) [1],Stability (photostability) [1],Solubility in DMSO [2],Solubility in methanol and ethanol [2],Solubility in water [2],IC50 [3]
COc1cc2ncnc(Nc3ccc(F)c(Cl)c3)c2cc1OCC[N]1CC[NH][Ru]1([Cl])([Cl])([Cl])[SH](C)(C)=O [JLY2007],"Stable in air,",photostable,Highly soluble in DMSO,"soluble in water, soluble in methanol",slightly,7.5 nM
COc1cc2ncnc(Nc3ccc(F)c(Cl)c3)c2cc1OCCC[NH+]1CC[NH2+][Pt-2]1([Cl])[Cl] (stereo not drawn) [ZY-2],"Stable in air,",photostable,Highly soluble in DMSO,"soluble in water, soluble in methanol",slightly,17 nM
"COc1cc2ncnc(Nc3ccc(F)c(Cl)c3)c2cc1OCCBr [ZW1001-M, 4-(3′-chloro-4′-fluoro-phenylamino)-6-(2-bromo-ethoxy)-7-methoxy quinazoline]","Stable in air,",photostable,Highly soluble in DMSO,"soluble in water, soluble in methanol",slightly,18 nM
COc1cc2ncnc(Nc3ccc(F)c(Cl)c3)c2cc1OCC[NH+]1CC[NH2+][Pt-2]1([Cl])[Cl] (stereo not drawn) [ZY-1],"Stable in air,",photostable,Highly soluble in DMSO,"soluble in water, soluble in methanol",slightly,2.8 nM
